{
  "source": "patent US20260306525A1",
  "about": "“COMBINATION THERAPY GLUCOCORTICOIDS AND GINSENOSIDE” (FYTAGORAS B.V., priority 2023, published 2026)",
  "target": "T1, GR (Homo sapiens, UniProt P04150)",
  "T1 sequence (P04150 1-777)": "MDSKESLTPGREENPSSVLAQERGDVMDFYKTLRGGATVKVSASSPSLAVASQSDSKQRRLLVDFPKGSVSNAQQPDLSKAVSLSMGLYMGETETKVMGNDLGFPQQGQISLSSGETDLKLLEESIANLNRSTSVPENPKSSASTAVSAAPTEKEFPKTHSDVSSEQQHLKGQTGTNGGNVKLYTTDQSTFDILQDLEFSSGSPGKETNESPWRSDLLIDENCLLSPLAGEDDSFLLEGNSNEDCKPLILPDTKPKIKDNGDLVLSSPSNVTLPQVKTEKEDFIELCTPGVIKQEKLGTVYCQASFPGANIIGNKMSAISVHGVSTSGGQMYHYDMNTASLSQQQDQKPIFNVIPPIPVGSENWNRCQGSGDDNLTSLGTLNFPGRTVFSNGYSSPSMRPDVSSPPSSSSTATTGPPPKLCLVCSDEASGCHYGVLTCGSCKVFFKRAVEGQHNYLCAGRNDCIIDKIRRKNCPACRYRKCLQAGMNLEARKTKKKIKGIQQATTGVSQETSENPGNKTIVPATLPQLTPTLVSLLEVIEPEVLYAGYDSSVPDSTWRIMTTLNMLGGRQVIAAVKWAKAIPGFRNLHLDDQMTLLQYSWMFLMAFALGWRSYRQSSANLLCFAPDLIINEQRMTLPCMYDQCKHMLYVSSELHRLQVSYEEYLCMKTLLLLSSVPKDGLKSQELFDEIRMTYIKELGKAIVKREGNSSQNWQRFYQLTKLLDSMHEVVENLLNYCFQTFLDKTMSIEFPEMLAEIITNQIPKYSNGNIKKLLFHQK",
  "test": "PolarScreen Glucocorticoid Receptor competitive binding assay",
  "parameters": "followed by GR Full Length (partially purified receptor in storage buffer); purchased ThermoFisher Scientific",
  "experimental": "To determine the relative binding affinities of the different compounds for the human GR in vitro, the PolarScreen™ Glucocorticoid Receptor Competitor Assay Kit (ThermoFisher Scientific, Waltham, MA, USA) was used following the manufacturer's instructions. Briefly, test compounds were first dissolved in DMSO to a 10 mM stock concentration and further diluted in GR buffer (100 mM potassium phosphate (pH 7.4), 200 mM Na2MoO4, 1 mM EDTA, and 20% DMSO). Serial dilutions of the compounds were transferred to a Corning® black 384-well plate and Fluormone GS red™ was added, followed by GR Full Length (partially purified receptor in storage buffer). The plate was incubated for 4 h at RT in the dark and fluorescence polarization was measured with a CLARIOStar Microplate Reader (BMG Labtech, Ortenberg, Germany). Obtained values were normalized to the assay maximum (no ligand) and minimum control (10 µM dexamethasone), and relative percentages of polarization were determined. Dose-response curves were fitted enabling the calculations of IC50 values for each compound.",
  "data": [
    {"smiles": "CC(C)=CCC[C@](C)(O[C@@H]1O[C@H](CO)[C@@H](O)[C@H](O)[C@H]1O)[C@H]1CC[C@]2(C)[C@@H]1[C@H](O)C[C@@H]1[C@@]3(C)CC[C@H](O)C(C)(C)[C@@H]3[C@@H](O[C@@H]3O[C@H](CO)[C@@H](O)[C@H](O)[C@H]3O)C[C@]12C", "note": "[Rg1, (3β,6α, 12β)-3,12-Dihydroxydammar-24-ene-6,20-diyl bis-β-D-glucopyranoside]", "values": [
      {"measurement": "IC50", "setting": "fluorescence polarization, 4 h at RT", "value": 22, "unit": "µM"},
      {"measurement": "relative GR binding affinity, times lower than beclomethasone", "setting": "vs beclomethasone", "value": "~ 4,000 times"}
    ]}
  ]
}
